Reference: patent US9302999B2, “Substituted triazoles as herbicides” (E. I. DU PONT DE NEMOURS AND COMPANY, priority 2012, dated 2016)

Legend:
Type in all cases: in vivo
[1] = tested on: barnyardgrass (Echinochloa crus-galli); test: Test A pre-/postemergence: barnyardgrass
In short: (§1)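 Whole-plant greenhouse assay in loam/sand. Preemergence directed soil spray plus simultaneous postemergence spray (one- to two-leaf stage, 2–10 cm). Rated visually ~10 days later, 0 = no effect, 100 = complete control.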

[2] = tested on: morningglory (Ipomoea spp.); test: Test A pre-/postemergence: morningglory; settings: for Morningglory plant response rating: visual rating on 0 to 100 scale (0 no effect, 100 complete control), approximately ten days
In short: as §1

[3] = tested on: wheat (Triticum aestivum); test: Test A pre-/postemergence: wheat; settings: for Wheat plant response rating: visual rating on 0 to 100 scale (0 no effect, 100 complete control), approximately ten days
In short: as §1

corn (Zea mays) = test: Test A pre-/postemergence: corn
In short: as §1

[4] = tested on: blackgrass (Alopecurus myosuroides); test: Test C pre-/postemergence: blackgrass
In short: (§2)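 Preemergence on seeds in loam/sand, postemergence on 2–18 cm (1–4-leaf) plants in peat-based medium; compounds in non-phytotoxic solvent with surfactant. After 13–15 days in greenhouse, visual rating versus controls, 0 (no effect) to 100 (complete control).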

[5] = tested on: ryegrass, Italian (Italian ryegrass, Lolium multiflorum); test: Test C pre-/postemergence: ryegrass, Italian
In short: as §2

[6] = tested on: large crabgrass (Digitaria sanguinalis); test: Test C pre-/postemergence: large crabgrass
In short: as §2

[7] = tested on: johnsongrass (Sorghum halepense); test: Test C pre-/postemergence: johnsongrass
In short: as §2

[8] = tested on: nutsedge, yellow (yellow nutsedge, Cyperus esculentus); test: Test C pre-/postemergence: nutsedge, yellow
In short: as §2

[9] = tested on: pigweed (Amaranthus retroflexus); test: Test C pre-/postemergence: pigweed
In short: as §2

soybean (Glycine max) = test: Test C pre-/postemergence: soybean
In short: as §2

[10] = Postemergence, 125 g ai/ha, 0 to 100 scale, 0 is no effect, 100 is complete control
[11] = Postemergence, 500 g ai/ha, visual rating on 0 to 100 scale (0 no effect, 100 complete control), approximately ten days
[12] = Preemergence, 125 g ai/ha, 0 to 100 scale where 0 is no effect and 100 is complete control
[13] = Preemergence, 500 g ai/ha, 0 to 100 scale (0 no effect, 100 complete control)
[14] = Postemergence, 31 g ai/ha, scale 0 to 100 (0 no effect, 100 complete control)
[15] = Postemergence, 62 g ai/ha, scale 0 to 100 (0 no effect, 100 complete control)
[16] = Postemergence, 125 g ai/ha, scale 0 to 100, 0 no effect, 100 complete control
[17] = Postemergence, 250 g ai/ha, scale 0 to 100
[18] = Preemergence, 31 g ai/ha, scale of 0 to 100, 0 is no effect, 100 is complete control
[19] = Preemergence, 62 g ai/ha, scale of 0 to 100, 0 is no effect, 100 is complete control
[20] = Preemergence, 125 g ai/ha, scale 0 to 100, 0 no effect, 100 complete control
[21] = Preemergence, 250 g ai/ha, scale 0 to 100, 0 no effect, 100 complete control

Cc1nn(-c2ccc(C(F)(F)F)c(F)c2)nc1Oc1ccnc(C(F)(F)F)c1 [Compound 148]
5: Plant response rating, Ryegrass, Italian [5, 18] | Plant response rating, Nutsedge, Yellow [8, 19] | Plant response rating, Nutsedge, Yellow [8, 20] | Plant response rating, Soybean (soybean (Glycine max); [18])
30: Plant response rating, Wheat [3, 12] | Plant response rating, Soybean (soybean (Glycine max); [21])
65: Plant response rating, Ryegrass, Italian [5, 17] | Plant response rating, Pigweed [9, 14]
98: Plant response rating, Johnsongrass [7, 17] | Plant response rating, Johnsongrass [7, 20] | Plant response rating, Johnsongrass [7, 21] | Plant response rating, Pigweed [9, 15] | Plant response rating, Pigweed [9, 16] | Plant response rating, Pigweed [9, 17]
90: Barnyardgrass plant response rating [1, 11] | Plant response rating, Barnyardgrass [1, 12] | Morningglory plant response rating ([2]; Postemergence, 500 g ai/ha) | Plant response rating, Morningglory [2, 13] | Plant response rating, Blackgrass [4, 20] | Plant response rating, Blackgrass [4, 21] | Plant response rating, Ryegrass, Italian [5, 21] | Plant response rating, Soybean (soybean (Glycine max); [17])
45: Plant response rating, Soybean (soybean (Glycine max); [14]) | Plant response rating, Soybean (soybean (Glycine max); [15])
10: Plant response rating, Corn (corn (Zea mays); [12]) | Plant response rating, Ryegrass, Italian [5, 14] | Plant response rating, Nutsedge, Yellow [8, 14] | Plant response rating, Nutsedge, Yellow [8, 15] | Plant response rating, Soybean (soybean (Glycine max); [19])
35: Plant response rating, Ryegrass, Italian [5, 15]
50: Plant response rating, Wheat [3, 13] | Plant response rating, Blackgrass [4, 15]
55: Plant response rating, Johnsongrass [7, 16]
100: Plant response rating, Barnyardgrass [1, 13] | Plant response rating, Crabgrass, Large [6, 18] | Plant response rating, Crabgrass, Large [6, 19] | Plant response rating, Crabgrass, Large [6, 20] | Plant response rating, Crabgrass, Large [6, 21] | Plant response rating, Pigweed [9, 18] | Plant response rating, Pigweed [9, 19] | Plant response rating, Pigweed [9, 20] | Plant response rating, Pigweed [9, 21]
85: Plant response rating, Blackgrass [4, 19]
60: Plant response rating, Blackgrass [4, 18] | Plant response rating, Ryegrass, Italian [5, 16] | Plant response rating, Ryegrass, Italian [5, 19] | Plant response rating, Ryegrass, Italian [5, 20] | Plant response rating, Crabgrass, Large [6, 15] | Plant response rating, Crabgrass, Large [6, 16]
80: Barnyardgrass plant response rating [1, 10] | Plant response rating, Morningglory [2, 10] | Plant response rating, Blackgrass [4, 17] | Plant response rating, Crabgrass, Large [6, 17] | Plant response rating, Johnsongrass [7, 19] | Plant response rating, Soybean (soybean (Glycine max); [16])
40: Plant response rating, Morningglory [2, 12] | Wheat plant response rating ([3]; Postemergence, 500 g ai/ha) | Corn plant response rating (corn (Zea mays); [11]) | Plant response rating, Blackgrass [4, 14]
15: Plant response rating, Crabgrass, Large [6, 14] | Plant response rating, Johnsongrass [7, 18] | Plant response rating, Nutsedge, Yellow [8, 16] | Plant response rating, Nutsedge, Yellow [8, 17]
70: Plant response rating, Blackgrass [4, 16]
0: Plant response rating, Nutsedge, Yellow [8, 18]
20: Plant response rating, Wheat [3, 10] | Corn plant response rating (corn (Zea mays); [10]) | Plant response rating, Corn (corn (Zea mays); [13]) | Plant response rating, Johnsongrass [7, 14] | Plant response rating, Johnsongrass [7, 15] | Plant response rating, Soybean (soybean (Glycine max); [20])

CCc1nn(-c2ccc(F)cc2)nc1Cc1ccnc(C(F)(F)F)c1 [Compound 154]
70: Plant response rating, Corn (corn (Zea mays); [13]) | Plant response rating, Blackgrass [4, 17] | Plant response rating, Crabgrass, Large [6, 17]
20: Plant response rating, Morningglory [2, 12] | Plant response rating, Wheat [3, 10] | Plant response rating, Wheat [3, 13] | Plant response rating, Corn (corn (Zea mays); [12]) | Plant response rating, Crabgrass, Large [6, 14]
90: Plant response rating, Barnyardgrass [1, 10] | Barnyardgrass plant response rating [1, 11] | Plant response rating, Blackgrass [4, 18] | Plant response rating, Blackgrass [4, 19] | Plant response rating, Blackgrass [4, 20] | Plant response rating, Blackgrass [4, 21] | Plant response rating, Ryegrass, Italian [5, 20] | Plant response rating, Ryegrass, Italian [5, 21] | Plant response rating, Crabgrass, Large [6, 18] | Plant response rating, Johnsongrass [7, 20]
50: Wheat plant response rating ([3]; Postemergence, 500 g ai/ha)
5: Plant response rating, Ryegrass, Italian [5, 14]
65: Plant response rating, Johnsongrass [7, 16] | Plant response rating, Soybean (soybean (Glycine max); [16])
55: Plant response rating, Blackgrass [4, 16]
75: Plant response rating, Soybean (soybean (Glycine max); [17])
98: Plant response rating, Pigweed [9, 16] | Plant response rating, Pigweed [9, 17]
0: Plant response rating, Wheat [3, 12] | Plant response rating, Nutsedge, Yellow [8, 18] | Plant response rating, Soybean (soybean (Glycine max); [18]) | Plant response rating, Soybean (soybean (Glycine max); [19])
40: Plant response rating, Johnsongrass [7, 18] | Plant response rating, Johnsongrass [7, 19]
100: Plant response rating, Barnyardgrass [1, 12] | Plant response rating, Barnyardgrass [1, 13] | Morningglory plant response rating ([2]; Postemergence, 500 g ai/ha) | Plant response rating, Crabgrass, Large [6, 19] | Plant response rating, Crabgrass, Large [6, 20] | Plant response rating, Crabgrass, Large [6, 21] | Plant response rating, Pigweed [9, 18] | Plant response rating, Pigweed [9, 19] | Plant response rating, Pigweed [9, 20] | Plant response rating, Pigweed [9, 21]
95: Plant response rating, Johnsongrass [7, 21] | Plant response rating, Pigweed [9, 14] | Plant response rating, Pigweed [9, 15]
10: Plant response rating, Ryegrass, Italian [5, 15] | Plant response rating, Ryegrass, Italian [5, 18] | Plant response rating, Johnsongrass [7, 14] | Plant response rating, Nutsedge, Yellow [8, 14] | Plant response rating, Nutsedge, Yellow [8, 15]
45: Plant response rating, Crabgrass, Large [6, 16] | Plant response rating, Soybean (soybean (Glycine max); [14])
60: Plant response rating, Soybean (soybean (Glycine max); [15])
35: Plant response rating, Blackgrass [4, 15] | Plant response rating, Ryegrass, Italian [5, 17]
80: Plant response rating, Morningglory [2, 10] | Plant response rating, Morningglory [2, 13] | Corn plant response rating (corn (Zea mays); [11])
15: Plant response rating, Blackgrass [4, 14] | Plant response rating, Nutsedge, Yellow [8, 16] | Plant response rating, Nutsedge, Yellow [8, 17] | Plant response rating, Soybean (soybean (Glycine max); [20]) | Plant response rating, Soybean (soybean (Glycine max); [21])
30: Plant response rating, Corn (corn (Zea mays); [10]) | Plant response rating, Ryegrass, Italian [5, 16] | Plant response rating, Ryegrass, Italian [5, 19] | Plant response rating, Crabgrass, Large [6, 15] | Plant response rating, Johnsongrass [7, 15]
85: Plant response rating, Johnsongrass [7, 17]
